Results on one compound are retold here after patent US20230338322A1, “GLYCERYLTRIACETATE (GTA) FOR USE IN IMPROVING BREATHING” (YISSUM RESEARCH DEVELOPMENT COMPANY OF THE HEBREW …, priority 2020, published 2023).

Data set [1] relates to SARS-Cov2 (COVID-19 infection). Put plainly: Treating SARS-Cov2 infected patients (COVID-19 infection). Conditions: all 11 patients, age 60-89, PCR positive with respiratory symptoms; softgel GTA 12 ml daily oral, 5-10 days, no other medication. It is filed as in vivo, human. The text has this:
Eleven subjects, age 60-89 with various comorbidities, who were positive for COVID-19 infection by the PCR test and already developed respiratory-related symptoms of the disease. […] Treatment duration was between 5-10 days, according to recovery rate.

A short description of data set [2]: Treating Long-COVID (post-corona) patients with GTA capsules. The class given is in vivo, human. The conditions noted are these: softgel GTA 12 ml daily oral. The text has this: Long COVID is a range of symptoms that can last weeks or months after first being infected with the virus that causes COVID-19 or can appear weeks after infection. 5 Long-Covid subjects who recovered from COVID-19 infection (=became PCR negative) but still have significant breathing problems that compromised their daily physical activities. […] Treatment duration was between 5-10 days, according to recovery rate.

A further data set deals with swine flu infection. The conditions noted are these: human, in vivo, po.
For data set [3] the following is noted: Madhavarao 2009, Segel 2011; cited from earlier work.
Another data set concerns tumor-model. Conditions: GTA alone versus combination with chemotherapy (TMZ); WO13013061; cited from earlier work.
The conditions of data set [4]: aqueous solution; cited from earlier work.
The nature of data set [5]: Treating asthmatic patients with GTA capsules.
Protocol: These patients where orally administered softgel capsules filled with GTA at a daily dose of 12 ml, either 4 ml three times a day or 6 ml twice a day, during or immediately after meal. Treatment duration was 7 days.
Data set [6] can be described thus: Treating a bronchitis patient with GTA capsules. Conditions: softgel GTA 12 ml daily for a total of 5 days.
Data set [7] can be described thus: Treating lung cancer patient with breathing difficulties.
Protocol: The patient started taking pure glyceryl-triacetate (GTA), encapsulated in hard-shell Vegicaps (produced by Capsugel), 12 ml a day, divided among 3 meals. After 3 days the patient increased the dose to 24 ml a day and after additional 3 days they consumed a daily dose of 30 ml GTA for a period of 1 month.

Consider `CC(=O)OCC(COC(C)=O)OC(C)=O` [GTA, Glyceryltriacetate], for which the “recovery from the disease” value in [1] is listed as “fully recovered”. In addition, the “time to recovery from breathing problems” value in data set [2] (5 Long-Covid patients) is 5 to 10 days. For the same compound, in data set [2] (all 5 Long-Covid patients, no other medication), the “recovery from breathing problems” value is given as “fully or almost fully recovered”. The “patient's healing compared to non-treated patients” value in the data set with swine flu infection is listed as “acceleration of patient's healing”. The “therapeutic benefit in Canavan disease clinical trials” value in data set [3] was “failed to show any therapeutic benefit”. For the same compound, the “improvement in in-vivo tumor-model” value in the data set with tumor-model is on record as “not by GTA by itself”. The water solubility limit in data set [4] is reported as 0.25%. Further, the “duration of the beneficial effect” value in [5] (after 7 days of GTA 12 ml daily, then 2nd round required) is on record as 1-8 weeks. Further, the patient-reported breathing entry in data set [5] (all 4 chronic asthmatic patients, softgel GTA 12 ml daily oral, 7 days, including giving up inhalation) is “outstanding improvement”. Also, the “patient-reported coughing and breathing” value in data set [6] is given as “less to no coughing, improved breathing”. Also, the “tumor mass on CT” value in [7] (GTA up to 30 ml daily for 1 month) is “no improvement in tumor mass”. The self-reported breathing entry in data set [7] (within 2 days after start of GTA 12 ml a day) is “breathing is much easier”. Further, the “use of inhaled Salbutamol” value in [7] (within a week, GTA 12 ml then 24 ml a day) is “stopped taking Salbutamol”. Besides, the “walking distance without taking a break” value in data set [7] (within a week, before treatment not more than ~50 m) was “hundreds of meters”.
